Measurements: the supplement of paper PMC5579334

Tests used:
[1] = test system: HS-PSS; assay: relative IC50 (inflection point of fitted dose-response curve, CellTox-Green cytotoxicity, 72 h; top asymptote may be below 50%); higher = less potent
In short: (§1)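 MPNST cell lines and primary human Schwann cells were grown for 72 h at 37 °C in 384-well plates containing five 10-fold compound dilutions. CellTox-Green, added before seeding at a final 1:1000 dilution, gave fluorescence from DNA released by disrupted cells, and signals were scaled to vehicle and positive-control wells. Curves were fitted with a four-parameter logistic model. Drug sensitivity score and relative IC50 come from these fits, with IC50 censored at the top concentration.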

[2] = test system: YST-1; assay: relative IC50 (inflection point of fitted dose-response curve, CellTiter-Glo viability, 72 h; top asymptote may be below 50% inhibition); higher = less potent
In short: (§2)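 For this screen, 384-well plates were preprinted with each compound at five concentrations in 10-fold steps and seeded with MPNST cell lines or primary human Schwann cells at 750–1000 cells per well. Incubation lasted 72 h at 37 °C, 5% CO2, and CellTiter-Glo ATP luminescence, scaled between vehicle and positive-control wells and averaged over duplicates where available, served as viability. Logistic fits with four parameters were applied. Relative IC50 (censored at the top concentration) and drug sensitivity score derive from these fits, and percent inhibition is at the top concentration.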

[3] = test system: HS-Sch-2; assay: as above
In short: as §2

[4] = test system: HS-PSS; assay: drug sensitivity score (DSS, CellTiter-Glo viability, 72 h) (DSS (dimensionless)); higher = more sensitive; extreme values may be limits of the assay
In short: as §2

[5] = test system: HS-Sch-2; assay: as above
In short: as §2

[6] = test system: YST-1; assay: as above
In short: as §2

[7] = test system: HS-PSS; assay: drug sensitivity score (DSS, CellTox-Green cytotoxicity, 72 h) (DSS (dimensionless)); higher = more cytotoxic; extreme values may be limits of the assay
In short: as §1

[8] = test system: HS-PSS; assay: % inhibition of CellTiter-Glo viability at highest tested concentration (72 h), relative to DMSO and benzethonium chloride controls; higher = more inhibition
In short: as §2

[9] = test system: HS-Sch-2; assay: as above
In short: as §2

[10] = test system: YST-1; assay: as above
In short: as §2

Row | Structure (SMILES) | relative IC50 [1] [µM] | relative IC50 [2] [µM] | relative IC50 [3] [µM] | drug sensitivity score [4] | drug sensitivity score [5] | drug sensitivity score [6] | drug sensitivity score [7] | % inhibition [8] [%] | % inhibition [9] [%] | % inhibition [10] [%]
1 | Cc1ncc(Cl)cc1NCc1ccc(C(=O)N[C@@H](CC2CCCC2)C(=O)NC2CC2)s1 | > 5 | 0.103 |  |  |  |  |  |  |  | 
2 | Cn1cc(-c2ccc3nnc(C(F)(F)c4ccc5ncccc5c4)n3n2)cn1 | > 10 |  |  |  |  |  |  |  |  | 
3 | O=C(NC[C@H](O)CN1CCc2ccccc2C1)c1cc(NC2COC2)ncn1 | > 10 |  |  |  |  |  |  |  |  | 
4 | O=C(NOCC1CC1)c1ccc(F)c(F)c1Nc1ccc(I)cc1Cl | > 10 |  | 1.63 |  |  |  |  |  |  | 
5 | O=C(NOC[C@H](O)CO)c1ccc(F)c(F)c1Nc1ccc(I)cc1F | > 1 | > 1 |  |  |  |  |  |  |  | 
6 | OCCn1cc(-c2cnc3nnn(Cc4ccc5ncccc5c4)c3n2)cn1 | > 2.5 |  | > 2.5 |  |  |  |  |  |  | 
7 | Cc1ccccc1C(C(=O)NC1CCCCC1)N(C(=O)Cn1ccnc1C)c1cccc(F)c1 (stereo not drawn) [AGI-5198] | > 10 | > 10 |  |  |  |  |  |  |  | 
8 | CC(C)Oc1cc(Nc2nc(N[C@@H](C)c3ccc(F)cn3)ncc2Cl)n[nH]1 [AZ-23] |  | 0.162 |  |  |  |  |  |  |  | 
9 | Cc1nc(NC(=O)N2CCC[C@H]2C(N)=O)sc1-c1ccnc(C(C)(C)C(F)(F)F)c1 [Alpelisib] | > 2.5 | 0.217 |  |  |  |  |  |  |  | 
10 | COC(=O)N[C@@H](C)CNc1nccc(-c2cn(C(C)C)nc2-c2cc(Cl)cc(NS(C)(=O)=O)c2F)n1 [Encorafenib] | > 1 | > 1 |  |  |  |  |  |  |  | 
11 | CN1CC[C@@H](NC(=O)Nc2ccc(C#N)cc2)C[C@@H]1c1nc2ccccc2[nH]1 [Glasdegib] | > 1 | > 1 |  |  |  |  |  |  |  | 
12 | CN1CCN(C2CCN(C(=O)Nc3cc(Oc4ccc(NC(=O)C5(C(=O)Nc6ccc(F)cc6)CC5)c(F)c4)ccn3)CC2)CC1 [Golvatinib] | > 2.5 |  |  |  |  |  |  |  |  | 
13 | C#Cc1cccc(Nc2ncnc3cc4c(cc23)OCCOCCOCCO4)c1 [Icotinib] | > 10 |  |  |  |  |  |  |  |  | 
14 | O=C(Nc1ccc(OC(F)(F)F)cc1)c1sccc1NCc1ccnc2ccccc12 [OSI-930] | > 2.5 | > 2.5 |  |  |  |  |  |  |  | 
15 | COc1ccc(Cl)c(Nc2nc3ccccc3nc2NS(=O)(=O)c2cccc(NC(=O)C(C)(C)N)c2)c1 [Pilaralisib] | > 2.5 | 0.674 |  |  |  |  |  |  |  | 
16 | Cc1cc(-c2ncc(-c3cccnc3)cc2/C=C/c2ccccc2)cnc1-c1cccnc1 [Pyridoclax] | > 25 | 0.672 |  |  |  |  |  |  |  | 
17 | C=CC(=O)Nc1cccc(Nc2nc(Nc3ccc(OCCOC)cc3)ncc2F)c1 [Spebrutinib] | > 1 |  |  |  |  |  |  |  |  | 
18 | COc1cc(C(=O)NC2CCN(C)CC2)c(F)cc1Nc1ncc2c(n1)N(C1CCCC1)CC(F)(F)C(=O)N2C [TAK-960] | > 2.5 | > 2.5 |  |  |  |  |  |  |  | 
19 | Cc1cccc(-c2[nH]c(CNc3ccccc3F)nc2-c2ccc3ncnn3c2)n1 [TEW-7197] | > 2.5 | > 2.5 |  |  |  |  |  |  |  | 
20 | Clc1ccccc1C(c1ccccc1)(c1ccccc1)n1cccn1 [TRAM-34] | > 1 | > 1 |  |  |  |  |  |  |  | 
21 | CCN(c1cc(-c2ccc(CN3CCOCC3)cc2)cc(C(=O)NCc2c(C)cc(C)[nH]c2=O)c1C)C1CCOCC1 [Tazemetostat] | > 10 | > 10 |  |  |  |  |  |  |  | 

Row | Structure (SMILES) | relative IC50 [1] [µM] | relative IC50 [2] [µM] | relative IC50 [3] [µM] | drug sensitivity score [4] | drug sensitivity score [5] | drug sensitivity score [6] | drug sensitivity score [7] | % inhibition [8] [%] | % inhibition [9] [%] | % inhibition [10] [%]
22 | NC(=S)N/N=C/c1ncccc1N [Triapine] (max concentration tested 10000 nM) |  |  |  | 4.81 | 5.68 | 2.82 | 0.94 | 65.6 | 63.9 | 63.8
23 | COC(=O)c1ccc2c(c1)[nH]c1ncnc(NCCCN3CCCCC3)c12 [UM729] (max concentration tested 10000 nM) |  |  |  | 0.05 | 1.25 | 3.85 | 0 | 13.2 | 29 | 35.4
24 | O=C(O)CSc1cc(NS(=O)(=O)c2ccc(Br)cc2)c2ccccc2c1O [UMI-77] (max concentration tested 100000 nM) |  |  |  | 6.44 | 14.4 | 18.2 | 4.6 | 101 | 101 | 102
25 | CCCCNc1ncc(C(=O)NCc2ccc(-n3ccnc3)cc2)c(NC2CCC(O)CC2)n1 (stereo not drawn) [UNC2881] (max concentration tested 2500 nM) |  |  |  | 3.51 | 0 | 3.6 | 0 | 37 | 9.68 | 38.9
26 | NC(=O)c1cccc(-c2cccc(OC(=O)NC3CCCCC3)c2)c1 [URB597] (max concentration tested 1000 nM) |  |  |  | 1.09 | 0 | 0 | 0 | 18.8 | 0.43 | -6.54
27 | CC(C)Nc1cc(-c2c[nH]c(C(=O)N[C@H](CO)c3cccc(Cl)c3)c2)c(Cl)cn1 [Ulixertinib] (max concentration tested 10000 nM) |  |  |  | 2.52 | 6.76 | 3.93 | 0 | 53 | 68.7 | 41.1
28 | Cn1ncc(Cl)c1-c1cc(C(=O)N[C@H](CN)Cc2ccc(F)c(F)c2)oc1Cl [Uprosertib] (max concentration tested 10000 nM) |  |  |  | 0 | 0 | 3.04 | 0 | 9.97 | 6.41 | 21.9
29 | Oc1ncc(N(CCCl)CCCl)c(O)n1 [Uramustine] (max concentration tested 10000 nM) |  |  |  | 0 | 0 | 0 | 0 | -0.55 | 3 | 1.38
30 | CS(=O)(=O)c1ccc(-c2cnc(N)c(C(=O)Nc3ccccc3)n2)cc1 [VE-821] (max concentration tested 10000 nM) |  |  |  | 0.05 | 0 | 0 | 0 | 10.4 | 5.62 | 7.49
31 | O=C(O)CC1CC(c2ccccc2)=NO1 (stereo not drawn) [VGX-1027] (max concentration tested 10000 nM) |  |  |  | 0 | 0.12 | 0 | 0 | 4.47 | 13.4 | 4
32 | CNC(=O)c1ccccc1Nc1cc(Nc2ccc(N3CCOCC3)cc2OC)ncc1C(F)(F)F [VS-4718] (max concentration tested 10000 nM) |  |  |  | 3.23 | 3.18 | 4.99 | 0.03 | 68.6 | 50.4 | 45.2
33 | O=c1ncn2nc(Sc3ccc(F)cc3F)ccc2c1-c1c(Cl)cccc1Cl [VX 745] | > 10 | 0.778 |  |  |  |  |  |  |  | 
34 | O=c1ncn2nc(Sc3ccc(F)cc3F)ccc2c1-c1c(Cl)cccc1Cl [VX 745] (max concentration tested 10000 nM) |  |  |  | 0.47 | 0.7 | 3.73 | 0 | 21.1 | 22.6 | 31.1
35 | CCCC(CCC)C(=O)O [Valproic acid] (max concentration tested 1000000 nM) |  |  |  | 0 | 0 | 2.34 | 0 | 6.13 | 2.29 | 44.2
36 | C[C@@H]1COC(Nc2ccc3ncnc(Nc4ccc(OCc5nccs5)c(Cl)c4)c3c2)=N1 [Varlitinib] (max concentration tested 10000 nM) |  |  |  | 5.07 | 2.41 | 3.23 | 0 | 42 | 30.6 | 27.7
37 | CC1(C)CCC(CN2CCN(c3ccc(C(=O)NS(=O)(=O)c4ccc(NCC5CCOCC5)c([N+](=O)[O-])c4)c(Oc4cnc5[nH]ccc5c4)c3)CC2)=C(c2ccc(Cl)cc2)C1 [Venetoclax] (max concentration tested 1000 nM) |  |  |  | 0 | 0 | 0.21 | 0 | -9.6 | 0.97 | 16.4
38 | O=C(/C=C\n1cnc(-c2cc(C(F)(F)F)cc(C(F)(F)F)c2)n1)NNc1ccccn1 [Verdinexor] (max concentration tested 1000 nM) |  |  |  | 5.78 | 9.76 | 8.71 | 0.01 | 60 | 97 | 88.9
39 | CCn1c(=O)c(-c2cc[nH]n2)cc2c(C)nc(N)nc21 [Voxtalisib] (max concentration tested 10000 nM) |  |  |  | 3.33 | 4.83 | 9.29 | 0 | 48.4 | 64.5 | 86.5
40 | O=C(Nc1ccc(-c2ccnc(Nc3ccc(N4CCOCC4)cc3)n2)cc1)[C@H]1CCCN1 [XL019] (max concentration tested 10000 nM) |  |  |  | 1.67 | 1.09 | 1.13 | 0 | 32.7 | 22.7 | 24.9
41 | COc1cc2c(Nc3ccc(Cl)c(Cl)c3F)ncnc2cc1OC[C@H]1C[C@@H]2CN(C)C[C@@H]2C1 [XL-647] (max concentration tested 1000 nM) |  |  |  | 0.99 | 1.16 | 1.63 | 0 | 30.7 | 31.1 | 26.5
42 | c1ccc(Cn2c(-c3ccc(OC[C@H](C4CCNCC4)n4c(-c5ccccc5)nc5ccccc54)cc3)nc3ccccc32)cc1 [deltarasin] (max concentration tested 10000 nM) |  |  |  | 6.88 | 5.77 | 5.29 | 5.68 | 101 | 101 | 100
